From patent US8263610B2, “Substituted imidazolyl-5,6-dihydrobenzo[N]isoquinoline compounds” (ArQule, Inc., priority 2008, dated 2012)

Key:
Assay in all cases: MTS assay, inhibition of cell growth
Type in all cases: cell-based
PACA-2 cells = conditions: compound at 10 μM, 72 hours
Experimental: (§1) MDA-MB-231, DLD-1, Kato III NCI-H1299, PACA-2 cells, were maintained at 37° C., 5% CO2 in DMEM media supplemented with 10% fetal bovine serum, penicillin/streptomycin and fungizone (Invitrogen). Cells were seeded into 96-well tissue culture plates at 3000 per well and cultured at 37° C. for 18 hours. Test compounds were dissolved and diluted to 300× in DMSO then further diluted 1:40 in DMEM before addition to cells (1:7.5 dilution). Cells were incubated with test compounds for 72 hours followed by incubation with tetrazolium compound (3-(4,5-dimethylthiazol-2-yl)-5-(3-carboxymethoxyphenyl)-2-(4-sulfophenyl)-2H-tetrazolium, inner salt; MTS) and the electron coupling reagent, phenazine methosulfate (PMS) for 4 hours. […] The ability of compounds to inhibit cell growth in this assay is correlated with the reduction of dehydrogenase enzyme activity found in metabolically active cells. The measurement of the absorbance of the formazan was assessed using an ENVISION™ (Perkin Elmer) microplate reader at 492 nm.

DLD-1 cells = conditions: Homo sapiens, compound at 10 μM, 72 hours
Experimental: as §1

Kato III cells = conditions: Homo sapiens, compound at 10 μM, 72 hours
Experimental: as §1

MDA-MB-231 cells = conditions: Homo sapiens, compound at 10 μM, 72 hours
Experimental: as §1

NCI-H1299 cells = conditions: Homo sapiens, compound at 10 μM, 72 hours
Experimental: as §1

| Compound | inhibition at 10 µM (PACA-2 cells) [%] | inhibition at 10 µM (DLD-1 cells) [%] | inhibition at 10 µM (Kato III cells) [%] | inhibition at 10 µM (MDA-MB-231 cells) [%] | inhibition at 10 µM (NCI-H1299 cells) [%] |
| --- | --- | --- | --- | --- | --- |
| O=C(Nc1cccc(Oc2ccccc2)c1)N1CCc2c(cnc3[nH]nc(Br)c23)C1 [1-bromo-N-(3-phenoxyphenyl)-3,6,8,9-tetrahydro-7H-pyrazolo[3,4-c][2,7]naphthyridine-7-carboxamide] | 50 to 74 | 75 to 100 | 75 to 100 | 25 to 49 | 50 to 74 |
| Cc1ccc(C)c(S(=O)(=O)NC2CCc3c(cnc4[nH]ncc34)C2)c1 (stereo not shown) [2,5-dimethyl-N-(6,7,8,9-tetrahydro-3H-pyrazolo[3,4-c]isoquinolin-7-yl)benzenesulfonamide] | 75 to 100 | 75 to 100 | 75 to 100 | 75 to 100 | 75 to 100 |
| COc1ccc(Cn2ncc3c4c(cnc32)CCc2[nH]c(=O)ccc2-4)cc1 [3-(4-methoxybenzyl)-3,6,7,8-tetrahydro-9H-pyrazolo[4,3-a][3,7]phenanthrolin-9-one] | 75 to 100 | 75 to 100 | 75 to 100 | 75 to 100 | 75 to 100 |
| CNc1ncc2c(n1)CCc1cnc3c(cnn3Cc3ccc(OC)cc3)c1-2 [3-(4-methoxybenzyl)-N-methyl-6,7-dihydro-3H-pyrazolo[4′,3′:5,6]pyrido[4,3-f]quinazolin-9-amine] | 75 to 100 | 75 to 100 | 75 to 100 | 75 to 100 | < 24 |
| Nc1nc(N2CCc3c(cnc4[nH]ncc34)C2)c2cn[nH]c2n1 [4-(3,6,8,9-tetrahydro-7H-pyrazolo[3,4-c][2,7]naphthyridin-7-yl)-1H-pyrazolo[3,4-d]pyrimidin-6-amine] | 75 to 100 | 75 to 100 | 75 to 100 | 50 to 74 | 25 to 49 |
| c1nc2[nH]ncc2c2c1CNCC2 [6,7,8,9-tetrahydro-3H-pyrazolo[3,4-c][2,7]naphthyridine] | 75 to 100 | 75 to 100 | 25 to 49 | 75 to 100 | 25 to 49 |
| c1cc2c(s1)CCc1cnc3[nH]ncc3c1-2 [6,7-dihydro-3H-pyrazolo[3,4-c]thieno[3,2-f]isoquinoline] | 75 to 100 | 75 to 100 | 75 to 100 | 75 to 100 | 75 to 100 |
| Nc1nc(N)nc(N2CCc3c(cnc4[nH]ncc34)C2)n1 [6-(3,6,8,9-tetrahydro-7H-pyrazolo[3,4-c][2,7]naphthyridin-7-yl)-1,3,5-triazine-2,4-diamine] | 75 to 100 | 75 to 100 | 75 to 100 | 75 to 100 | 75 to 100 |
| Nc1nc(N2CCc3c(cnc4[nH]ncc34)C2)c2nc[nH]c2n1 [6-(3,6,8,9-tetrahydro-7H-pyrazolo[3,4-c][2,7]naphthyridin-7-yl)-9H-purin-2-amine] | 75 to 100 | 75 to 100 | 75 to 100 | 75 to 100 | 75 to 100 |
| Cc1cc(NC2CCc3c(cnc4[nH]ncc34)C2)nc(N)n1 (stereo not shown) [6-methyl-N~4~-(6,7,8,9-tetrahydro-3H-pyrazolo[3,4-c]isoquinolin-7-yl)pyrimidine-2,4-diamine] | 75 to 100 | 75 to 100 | 75 to 100 | 75 to 100 | 25 to 49 |
| Clc1ccccc1C1Cc2cnc3[nH]nc(-c4cnn(C5CCNCC5)c4)c3c2-c2ccccc21 (stereo not shown) [7-(2-chlorophenyl)-1-(1-piperidin-4-yl-1H-pyrazol-4-yl)-6,7-dihydro-3H-benzo[f]pyrazolo[3,4-c]isoquinoline] | 75 to 100 | 75 to 100 | 75 to 100 | 75 to 100 | 75 to 100 |
| O=S(=O)(c1cccs1)N1CCc2c(cnc3[nH]ncc23)C1 [7-(2-thienylsulfonyl)-6,7,8,9-tetrahydro-3H-pyrazolo[3,4-c][2,7]naphthyridine] | 75 to 100 | 75 to 100 | 75 to 100 | 75 to 100 | 75 to 100 |
| CS(=O)(=O)N1CCc2c(cnc3[nH]ncc23)C1 [7-(methylsulfonyl)-6,7,8,9-tetrahydro-3H-pyrazolo[3,4-c][2,7]naphthyridine] | 75 to 100 | 75 to 100 | 75 to 100 | 75 to 100 | 75 to 100 |
| COc1ccc(S(=O)(=O)N2CCc3c(cnc4[nH]ncc34)C2)cc1OC [7-[(3,4-dimethoxyphenyl)sulfonyl]-6,7,8,9-tetrahydro-3H-pyrazolo[3,4-c][2,7]napthyridine] | 75 to 100 | 75 to 100 | 75 to 100 | 75 to 100 | 75 to 100 |
| COc1ccc(CN2CCN(C(=O)N3CCc4c(cnc5[nH]ncc45)C3)CC2)cc1 [7-{[4-(4-methoxybenzyl)piperazin-1-yl]carbonyl}-6,7,8,9-tetrahydro-3H-pyrazolo[3,4-c][2,7]naphthyridine] | 75 to 100 | 75 to 100 | 75 to 100 | 75 to 100 | < 24 |
| Clc1ccccc1CN1CCN(c2ncc3c(n2)CCc2cnc4[nH]ncc4c2-3)CC1 [9-[4-(2-chlorobenzyl)piperazin-1-yl]-6,7-dihydro-3H-pyrazolo[4′3′:5,6]pyrido[4,3-f]quinazoline] | 75 to 100 | 75 to 100 | 75 to 100 | 75 to 100 | 75 to 100 |
| CN(C)CCNC(C(=O)N1CCc2c(cnc3[nH]nc(-c4ccccc4)c23)C1)c1ccccc1 (stereo not shown) [N,N-dimethyl-N′-[2-oxo-1-phenyl-2-(1-phenyl-3,6,8,9-tetrahydro-7H-pyrazolo[3,4-c][2,7]napthyridin-7-yl)ethyl]ethane-1,2-diamine] | 75 to 100 | 75 to 100 | 75 to 100 | 75 to 100 | 75 to 100 |
| O=C(NCCc1cccc(Cl)c1)c1cccc(NC(=O)N2CCc3c(cnc4[nH]ncc34)C2)c1 [N-(3-{[2-(3-chlorophenyl)ethyl]carbamoyl}phenyl)-3,6,8,9-tetrahydro-7H-pyrazolo[3,4-c][2,7]naphthyridine-7-carboxamide] | 75 to 100 | 75 to 100 | 75 to 100 | 75 to 100 | 25 to 49 |
| c1nc2[nH]ncc2c2c1CCc1nc(NCC3CCCCCC3)ncc1-2 [N-(cycloheptylmethyl)-6,7-dihydro-3H-pyrazolo[4′,3′:5,6]pyrido[4,3-f]quinazolin-9-amine] | 75 to 100 | 75 to 100 | 75 to 100 | 75 to 100 | 75 to 100 |
| O=C(NCC1CCCCC1)N1CCc2c(cnc3[nH]ncc23)C1 [N-(cyclohexylmethyl)-3,6,8,9-tetrahydro-7H-pyrazolo[3,4-c][2,7]naphthyridine-7-carboxamide] | 75 to 100 | 75 to 100 | 75 to 100 | 75 to 100 | 75 to 100 |
